Experimental data as given in US11325936B2, “Sialidase inhibitors and preparation thereof” (The Regents of the University of California, priority 2017, dated 2022).

What was measured:
CpNanH = CpNanH (Clostridium perfringens, UniProt P10481); assay: biochemical; details: pH 5.0; read-out: Percentage inhibition (%) against CpNanH
SpNanA = SpNanA (Streptococcus pneumoniae, UniProt P62575); assay: Sialidase inhibition assay (Example 4); type: biochemical; details: for inhibition at 100 µM: pH 6, read-out: Percentage inhibition (%) against SpNanA, 0.1 mM of each inhibitor, substrate Neu5Acα2-3GalβpNP 0.3 mM, pH 6.0
SpNanC [1] = molecular target: SpNanC (Streptococcus pneumoniae, UniProt A0A0H2UQE4); assay: Sialidase inhibition assay (Example 4); type: biochemical; details: pH 6.5, read-out: Percentage inhibition (%) against SpNanC
SpNanB [2] = molecular target: T1, SpNanB (Streptococcus pneumoniae serotype 4, UniProt Q54727, E68D/K536E/K577E/N393D/S59P); assay: Sialidase inhibition assay (Example 4); type: biochemical; details: pH 6, read-out: Percentage inhibition (%) against SpNanB
hNEU2 = hNEU2 (Homo sapiens, UniProt Q9Y3R4); assay: Sialidase inhibition assay (Example 4); type: biochemical; details: pH 5, 0.1 mM of each inhibitor, substrate Neu5Acα2-3GalβpNP 0.3 mM, read-out: Percentage inhibition (%) against hNEU2
Sequence of hNEU2 (Q9Y3R4 whole entry): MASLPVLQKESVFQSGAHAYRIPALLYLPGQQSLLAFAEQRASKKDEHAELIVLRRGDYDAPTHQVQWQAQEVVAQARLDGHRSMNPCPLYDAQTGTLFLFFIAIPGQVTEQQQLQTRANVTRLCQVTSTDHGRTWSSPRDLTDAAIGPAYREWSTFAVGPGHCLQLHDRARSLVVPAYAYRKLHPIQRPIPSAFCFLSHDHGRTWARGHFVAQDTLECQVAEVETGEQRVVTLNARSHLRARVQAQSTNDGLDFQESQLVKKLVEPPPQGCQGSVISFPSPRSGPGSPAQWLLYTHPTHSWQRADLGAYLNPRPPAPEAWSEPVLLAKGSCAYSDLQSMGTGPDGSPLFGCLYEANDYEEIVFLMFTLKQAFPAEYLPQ

VcSialidase = VcSialidase (Vibrio cholerae serotype O1, UniProt P0C6E9); assay: biochemical; details: pH 5.5, read-out: Percentage inhibition (%) against VcSialidase, 0.1 mM of each inhibitor, substrate Neu5Acα2-3GalβpNP 0.3 mM
AuSialidase = molecular target: T2, AuSialidase (Paenarthrobacter ureafaciens, UniProt Q5W7Q2); assay: Sialidase inhibition assay (Example 4); type: biochemical, Arthrobacter ureafaciens; details: pH 5.5, read-out: Percentage inhibition (%) against AuSialidase, 0.1 mM of each inhibitor, substrate Neu5Acα2-3GalβpNP 0.3 mM
T2 sequence (Q5W7Q2 39-990): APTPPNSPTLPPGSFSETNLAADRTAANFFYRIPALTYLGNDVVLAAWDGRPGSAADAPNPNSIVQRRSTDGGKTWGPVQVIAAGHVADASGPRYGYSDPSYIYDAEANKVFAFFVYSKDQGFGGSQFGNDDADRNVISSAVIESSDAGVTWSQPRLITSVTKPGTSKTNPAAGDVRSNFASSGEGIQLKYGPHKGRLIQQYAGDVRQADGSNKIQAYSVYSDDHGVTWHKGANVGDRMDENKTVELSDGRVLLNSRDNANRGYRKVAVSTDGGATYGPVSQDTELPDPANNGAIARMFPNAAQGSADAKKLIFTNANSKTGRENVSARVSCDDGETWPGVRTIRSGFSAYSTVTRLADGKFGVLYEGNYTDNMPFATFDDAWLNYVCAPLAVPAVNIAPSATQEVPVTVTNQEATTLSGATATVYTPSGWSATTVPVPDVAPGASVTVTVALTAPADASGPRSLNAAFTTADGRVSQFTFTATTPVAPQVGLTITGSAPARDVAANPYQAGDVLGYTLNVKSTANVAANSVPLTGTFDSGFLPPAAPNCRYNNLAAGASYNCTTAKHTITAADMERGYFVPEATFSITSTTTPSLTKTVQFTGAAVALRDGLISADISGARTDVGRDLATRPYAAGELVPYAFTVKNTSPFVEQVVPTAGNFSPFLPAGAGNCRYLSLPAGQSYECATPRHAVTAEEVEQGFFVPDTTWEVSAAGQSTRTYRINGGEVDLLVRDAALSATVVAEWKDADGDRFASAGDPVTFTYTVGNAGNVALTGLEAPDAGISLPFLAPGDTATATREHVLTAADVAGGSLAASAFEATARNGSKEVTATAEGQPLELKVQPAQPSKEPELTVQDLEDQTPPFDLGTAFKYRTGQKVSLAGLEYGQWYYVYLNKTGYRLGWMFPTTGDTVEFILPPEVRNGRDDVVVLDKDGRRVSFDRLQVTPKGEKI
Method: (§1) The assay conditions varied for different sialidases as described below: SpNanA (0.0015 μg), NaOAc buffer (100 mM, pH 6.0); SpNanB (0.003 μg), NaOAc buffer (100 mM, pH 6.0); SpNanC (0.02 μg), MES buffer (100 mM, pH 6.5); AuSialidase (1.0 mU), NaOAc buffer (100 mM, pH 5.5); CpNanI (2.0 mU), MES buffer (100 mM, pH 5.0); CpNanH (0.5 mU), MES buffer (100 mM, pH 5.0); VcSialidase (1.5 mU), NaCl (150 mM), CaCl2) (10 mM), NaOAc buffer (100 mM, pH 5.5); PmST1 (34.4 μg), NaOAc buffer (100 mM, pH 5.5); BiNanH2, NaOAc buffer (100 mM, pH 5.0); hNEU2 (22.0 μg), MES buffer (100 mM, pH 5.0). The reactions were incubated for 30 min at 37° C., and were stopped by adding CAPS buffer (N-cyclohexyl-3-aminopropane sulfonic acid, 40 μL, 0.5 M, pH 10.5). The amount of the para-nitrophenolate formed was determined by measuring the A405 nm Of the reaction mixtures using a microplate reader.
(§2) The percentage inhibitions were determined using a concentration of 0.1 mM of each inhibitor, with reactions without inhibitors as controls. […] The values of IC50 were calculated by the software Grafit 5.0.

BiNanH2 = BiNanH2 (Bifidobacterium longum subsp. infantis, UniProt A0ACD7UU12); assay: Sialidase inhibition assay (Example 4); type: biochemical; details: pH 5, read-out: Percentage inhibition (%) against BiNanH2, 0.1 mM of each inhibitor, substrate Neu5Acα2-3GalβpNP 0.3 mM
Sequence of BiNanH2 (A0ACD7UU12 entry or part of it): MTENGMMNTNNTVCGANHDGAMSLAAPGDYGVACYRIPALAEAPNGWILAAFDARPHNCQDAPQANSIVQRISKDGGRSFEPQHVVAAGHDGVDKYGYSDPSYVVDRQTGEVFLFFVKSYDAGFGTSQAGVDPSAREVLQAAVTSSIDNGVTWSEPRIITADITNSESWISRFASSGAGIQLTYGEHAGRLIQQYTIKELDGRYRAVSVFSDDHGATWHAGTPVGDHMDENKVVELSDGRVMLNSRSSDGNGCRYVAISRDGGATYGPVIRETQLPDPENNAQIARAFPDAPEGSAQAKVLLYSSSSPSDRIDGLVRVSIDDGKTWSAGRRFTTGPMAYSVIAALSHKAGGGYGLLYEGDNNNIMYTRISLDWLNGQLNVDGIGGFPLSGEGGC

CpNanI = type: biochemical, Clostridium perfringens; details: 0.1 mM of each inhibitor; substrate Neu5Acα2-3GalβpNP 0.3 mM; pH 5.0
PmST1 = PmST1 (Pasteurella multocida, UniProt Q15KI8); assay: Sialidase inhibition assay (Example 4); type: biochemical; details: 0.1 mM of each inhibitor; substrate Neu5Acα2-3GalβpNP 0.3 mM; pH 5.5; read-out: Percentage inhibition (%) against PmST1
Method: as §1, §2

SpNanB [3] = molecular target: T1, SpNanB; assay: Substrate specificity of SpNanB; details: pNP-tagged α2-3-linked sialosides
SpNanC [4] = assay: Substrate specificity assay of SpNanC; details: sialoside substrate 0.3 mM; SpNanC (2 μg); Tris-HCl pH 7.0; 30 min, 37° C.

Row | Compound | inhibition at 100 µM (CpNanH) | IC50 (SpNanA) | inhibition at 100 µM (SpNanA) | inhibition at 100 µM (SpNanC [1]) | inhibition at 100 µM (SpNanB [2]) | inhibition at 100 µM (hNEU2) | inhibition at 100 µM (VcSialidase) | inhibition at 100 µM (AuSialidase) | inhibition at 100 µM (BiNanH2) | Percentage inhibition (%) against CpNanI (CpNanI) | inhibition at 100 µM (PmST1) | Recognition by SpNanB (substrate specificity) (SpNanB [3]) | Percentage conversion (%) by SpNanC (SpNanC [4])
1 | CC(=O)NC[C@@H](O)[C@@H](O)[C@@H]1OC(C(=O)O)=C[C@H](O)[C@H]1NC(C)=O [compound 9, 5,9-Diacetamido-2,6-anhydro-3,5,9-trideoxy-D-glycero-D-galacto-non-2-enonic acid] | 1% | 11 ± 0.2 µM | 86% | 8% | 4% | 27% | 45% | 60% | 69% | 63% | 19% | – | –
2 | O=C(Cc1ccccc1)N[C@H]1[C@H]([C@H](O)[C@H](O)CO)OC(C(=O)O)=C[C@@H]1O [compound 15, 2,6-Anhydro-3,5-dideoxy-5-phenylacetamido-D-glycero-D-galacto-non-2-enonic acid] | 8% | – | 2% | 12% | 5% | 81% | 5% | 13% | 17% | 19% | 8% | – | –
3 | O=C(CO)N[C@@H]1C(O)C=C(C(=O)O)OC1[C@H](O)[C@H](O)CO (stereo partly drawn) [compound 7, 2,6-Anhydro-3,5-dideoxy-5-glycolylamido-D-glycero-D-galacto-non-2-enonic acid] | 9% | – | 14% | 17% | 4% | > 50% | – | 47% | 19% | 20% | 2% | – | –
4 | CCCCC(=O)NC[C@@H](O)[C@@H](O)[C@@H]1OC(C(=O)O)=C[C@H](O)[C@H]1NC(C)=O [compound 12, 5-Acetamido-2,6-anhydro-3,5,9-trideoxy-9-valeramido-D-glycero-D-galacto-non-2-enonic acid] | 3% | 10.5 ± 0.5 µM | 85% | 11% | 3% | 19% | 43% | 40% | 71% | 40% | 8% | – | –
5 | CC(=O)N[C@@H]1C(O)C=C(C(=O)O)OC1C[C@H](O)CO (stereo partly drawn) [compound 10, 5-Acetamido-2,6-anhydro-3,5,7-trideoxy-D-glycero-D-galacto-non-2-enonic acid] | 11% | 10.7 ± 0.4 µM | 89% | 5% | 2% | 42% | 40% | 85% | 30% | 57% | 15% | – | –
6 | CC(=O)N[C@@H]1C(O)C=C(C(=O)O)OC1[C@H](O)[C@H](O)CNC(=O)C1CC1 (stereo partly drawn) [compound 13, 5-Acetamido-2,6-anhydro-9-cyclopropylcarboxamido-3,5,9-trideoxy-D-glycero-D-galacto-non-2-enonic acid] | 7% | 6.8 ± 0.2 µM | 91% | 16% | 2% | 17% | 40% | 61% | 78% | 51% | 3% | – | –
7 | COCC(O)C(O)C1OC(OC2C(O)C(CO)OC(Oc3ccc([N+](=O)[O-])cc3)C2O)(C(=O)O)CC(O)C1NC(C)=O (stereo not shown) [Neu5Ac9OMeα2-3GalβpNP] | – | – | – | – | – | – | – | – | – | – | – | + (+ represents >80% conversion) | 88.5 ± 5.1%
8 | Neu5Ac7N3α2-3GalβpNP | – | – | – | – | – | – | – | – | – | – | – | + (+ represents >80% conversion) | 65.9 ± 1.1%
